Data set [1] relates to Primary human foreskin fibroblast cells (HFF). In words: Cell proliferation assay (cytotoxicity) in HFF cells. The format is cell-based. Particulars: for CC50: Human foreskin fibroblast cells, reduces growth of uninfected cells by 50%.
A further data set has as its system HSV-1 strain F. Description: CPE inhibition, HSV-1 strain F in HEp-2 cells. For Cytopathic Effect (CPE) Inhibition HSV-1 Strain F: key: +++ = Complete cytopathic effect; ++ = Moderate cytopathic effect; + = Minimum cytopathic effect; − = No cytopathic effect. It counts as cell-based, herpes simplex virus type 1. Particulars: for Cytopathic Effect (CPE) Inhibition HSV-1 Strain F: conc. per compound (ng/ml).
In another data set the test system is HSV-2 strain G. Description: CPE inhibition, HSV-2 strain G in HEp-2 cells. For Cytopathic Effect (CPE) Inhibition HSV-2 Strain G: key: +++ = Complete cytopathic effect; ++ = Moderate cytopathic effect; + = Minimum cytopathic effect; − = No cytopathic effect. It counts as cell-based, herpes simplex virus type 2. Particulars: for Cytopathic Effect (CPE) Inhibition HSV-2 Strain G: conc. per compound (ng/ml).
The subject of data set [2] is Human laryngeal epithelial carcinoma cells (HEp-2). Description: Cytotoxicity in HEp-2 cells. The format is cell-based.
The test system of the next data set is HSV-2 (strain G). In words: Plaque reduction assay, HSV-2 strain G in HEp-2 cells. It counts as cell-based, herpes simplex virus type 2. Particulars: HSV-2 virus control 47. On the procedure: HEp-2 cells were grown to monolayer in 24 well tissue culture plates in DMEM containing 10% fetal calf serum at 37° C. for 24-36 hours in the presence of 5% CO2. The monolayer of HEp-2 cells was infected with 0.1 ml of HSV- 1 (strain F) or HSV-2 (strain G) containing 100 pfu. The viruses were allowed to adsorb for 1 hour at 37° C. in the presence of 5% CO2. All wells containing virus infected cells except virus control were overlaid with 0.9 ml of DMEM and 1 ml of test compound. The virus control and cell control received DMEM only. All microtiter plates were incubated at 37° C. in the presence of 5% CO2 and observed twice daily for 72 hours for viral CPE. At the end of the experiment, plates were stained with 0.1% crystal violet and the results were quantified by counting plaque forming units.

In another data set the test system is HFF cells. Description: CC50 in HFF cells (Table 3). It counts as cell-based, human. Particulars: HFF cells. On the procedure:
The cells were observed daily for any change in morphology. The rounding and lysis of cells were observed if the compound has cytotoxic effect. At the end of this time, the media-drug solution was removed and the cells washed. […] The cells-media mixture was then pipetted up and down several times to resuspend the cells and 0.2 ml of the cell suspension was added to 9.8 ml of trypan blue and cells were counted using hemocytometer. Each sample was counted three times with three replicate wells per sample.

Another data set concerns Epstein-Barr Virus. In words: VCA expression in EBV-infected Daudi cells. Particulars: Epstein-Barr Virus, Daudi cells, VCA; test compounds in DMSO.
Where [3] appears, read: qualitative CPE inhibition assay.
[4] abbreviates: conc. per compound (ng/ml) (Acyclovir 250).
The mark [5] stands for this setting: Varicella-Zoster Virus section of Table 3.

Converted amounts (≈) assume the structure as drawn.

Consider `C=C(C)[C@@H]1CC[C@]2(CO)CC[C@]3(C)[C@H](CC[C@@H]4[C@@]5(C)CC[C@H](O)C(C)(C)[C@@H]5CC[C@]43C)[C@@H]12` [Betulin, lup-20(29)-ene-3β, 28-diol, reference compound], for which the “cytotoxicity (in words)” value is “more toxic” in data set [1] (HFF cells) and “less cytotoxicity” in data set [2] (HEp-2 (human epithelial) cells). Besides, in data set [1] (HFF cells, solution conc. per compound (ng/ml) (Acyclovir 250), 2.0 ml dose), the “Qualitative Cytotoxic Effect at 2.0 ml dose” value is reported as “−”. The CC50 in data set [1] was 250 ng/mL (≈ 0.565 µM); with HFF cells (Human Cytomegalovirus section of Table 3), 0.0142 µg/mL (≈ 0.0321 µM); with HFF cells (setting [5]) it was 0.0141 µg/mL (≈ 0.0318 µM). For the same compound, the “Cytopathic Effect (CPE) Inhibition HSV-1 Strain F” value with HSV-1 strain F is “+”. Besides, in the data set with HSV-1 strain F (setting [3]), the “anti HSV-1 activity (in words)” value was “significant anti HSV-1 activity”. The “Cytopathic Effect (CPE) Inhibition HSV-2 Strain G” value with HSV-2 strain G is recorded as “+”. In the data set with HSV-2 strain G (setting [3]), the “anti HSV-2 activity (in words)” value is recorded as “significant anti HSV-2 activity”. Further, in data set [2] (HEp-2 cells, conc. per compound (ng/ml)), the “Cell Cytotoxicity” value was “−”. For the same compound, the “Plaque Reduction Assay Average pfu/10^5 Cells HSV-2 Strain G” value with HSV-2 (strain G) (setting [4]) turned out to be 16 pfu/10^5 Cells.
As to “acycloguanosine [Acyclovir, reference compound]”, the figures for the CC50 (in data set [1] (listed as Acyclovir ®); in data set [1] (listed as Acyclovir®); in the data set on HFF cells (setting [5])) were greater than 12500 ng/mL, > 12,500 ng/ml and greater than 100 µg/mL, respectively. In the data set on HSV-1 strain F, the “Cytopathic Effect (CPE) Inhibition HSV-1 Strain F” value was “+++”. In the data set on HSV-2 strain G, the “Cytopathic Effect (CPE) Inhibition HSV-2 Strain G” value is “+++”. Besides, the “Plaque Reduction Assay Average pfu/10^5 Cells HSV-2 Strain G” value with HSV-2 (strain G) (Conc. 12500 ng/ml) was determined as 30 pfu/10^5 Cells; with HSV-2 (strain G) (setting [4]), 42 pfu/10^5 Cells. In the data set with Epstein-Barr Virus, this compound showed an EC50 of 1.4 µg/mL.

The record behind these values is patent US6369101B1, “Therapeutic method to treat herpes virus infection” (Regents of the University of Minnesota, priority 1999, dated 2002).
